# Assay results taken from ChEMBL document CHEMBL4011631, “Trisubstituted Pyridinylimidazoles as Potent Inhibitors of the Clinically Resistant L858R/T790M/C797S EGFR Mutant: Targeting of Both Hydrophobic Regions and the Phosphate Binding Site” (J Med Chem, 2017).
# The source made the active and inactive calls. The calls are words filed in the database; no cut-off is given here.
# Biological target: Epidermal growth factor receptor (Homo sapiens, UniProt P00533, C797S/L858R/T790M)
# Assay: Inhibition of human EGFR T790M/C797S/L858R triple mutant preincubated for 20 mins followed by [33P]ATP addition measured after 2 hrs
# Conditions: not given
row,Structure (SMILES),IC50 [nM]
1,CCC(=O)Nc1cccc(Nc2cc(-c3[nH]c(SC)nc3-c3ccc(F)cc3)ccn2)c1,223
2,CCC(=O)Nc1ccc(OC)c(Nc2cc(-c3[nH]c(SC)nc3-c3ccc(F)cc3)ccn2)c1,167
3,CCC(=O)Nc1ccc(OC)c(Nc2cc(-c3[nH]c(CCCO)nc3-c3ccc(F)cc3)ccn2)c1,7
4,C=CC(=O)Nc1cc(Nc2cc(-c3[nH]c(SC)nc3-c3ccc(F)cc3)ccn2)cc(N2CCN(C)CC2)c1,11
5,C=CC(=O)Nc1ccc(OC)c(Nc2cc(-c3[nH]c(CCCO)nc3-c3ccc(F)cc3)ccn2)c1,8
6,C=CC(=O)Nc1cc(Nc2cc(-c3[nH]c(SC)nc3-c3ccc(F)cc3)ccn2)cc(N2CCOCC2)c1,53

# Biological target: T1, Epidermal growth factor receptor (Homo sapiens, UniProt P00533)
# Assay: not given
# Conditions: read-out: Ratio
row,Structure (SMILES),kinact/KI [M⁻¹ s⁻¹]
1,C=CC(=O)NCCSc1nc(-c2ccc(F)cc2)c(-c2ccnc(Nc3ccccc3)c2)[nH]1,940000
2,C=CC(=O)Nc1ccc(OC)c(Nc2cc(-c3[nH]c(CCCO)nc3-c3ccc(F)cc3)ccn2)c1,1.5e+07

# Biological target: T1, Epidermal growth factor receptor
# Assay: not given
# Assay type: ADME
# Conditions: not given
row,Structure (SMILES),IC50 [nM]
1,CC(=O)CCCSc1nc(-c2ccc(F)cc2)c(-c2ccnc(Nc3ccccc3)c2)[nH]1,185
2,C=CC(=O)Nc1ccc(OC)c(Nc2cc(-c3cnc(SC)[nH]3)ccn2)c1,17
3,C=CC(=O)NCCCSc1nc(-c2ccc(F)cc2)c(-c2ccnc(Nc3ccccc3)c2)[nH]1,16
4,CCC(=O)Nc1cccc(Nc2cc(-c3[nH]c(SC)nc3-c3ccc(F)cc3)ccn2)c1,22
5,CCC(=O)Nc1ccc(OC)c(Nc2cc(-c3[nH]c(SC)nc3-c3ccc(F)cc3)ccn2)c1,< 1
6,C=CC(=O)NCCSc1nc(-c2ccc(F)cc2)c(-c2ccnc(Nc3ccccc3)c2)[nH]1,1.6
7,CCC(=O)Nc1ccc(OC)c(Nc2cc(-c3[nH]c(CCCO)nc3-c3ccc(F)cc3)ccn2)c1,< 1
8,C=CC(=O)Nc1cc(Nc2cc(-c3[nH]c(SC)nc3-c3ccc(F)cc3)ccn2)cc(N2CCN(C)CC2)c1,< 1
9,C=CC(=O)Nc1ccc(OC)c(Nc2cc(-c3[nH]c(CCCO)nc3-c3ccc(F)cc3)ccn2)c1,< 1
10,C=CC(=O)Nc1cc(Nc2cc(-c3[nH]c(SC)nc3-c3ccc(F)cc3)ccn2)cc(N2CCOCC2)c1,< 1

# Tested on: Epidermal growth factor receptor (Homo sapiens), P00533 [T790M]
# Assay: Covalent binding affinity to EGFR T790M mutant (unknown origin) at 100 uM after 1 hr by mass spectrometric analysis
# Conditions: not given
row,Structure (SMILES),Activity
1,CCC(=O)Nc1cccc(Nc2cc(-c3[nH]c(SC)nc3-c3ccc(F)cc3)ccn2)c1,inactive

# Biological target: T2, Epidermal growth factor receptor (Homo sapiens, UniProt P00533, L858R)
# Assay: not given
# Conditions: not given
row,Structure (SMILES),IC50 [nM]
1,CC(=O)CCCSc1nc(-c2ccc(F)cc2)c(-c2ccnc(Nc3ccccc3)c2)[nH]1,76
2,C=CC(=O)Nc1ccc(OC)c(Nc2cc(-c3cnc(SC)[nH]3)ccn2)c1,5.6
3,C=CC(=O)NCCCSc1nc(-c2ccc(F)cc2)c(-c2ccnc(Nc3ccccc3)c2)[nH]1,22
4,CCC(=O)Nc1cccc(Nc2cc(-c3[nH]c(SC)nc3-c3ccc(F)cc3)ccn2)c1,6.8
5,CCC(=O)Nc1ccc(OC)c(Nc2cc(-c3[nH]c(SC)nc3-c3ccc(F)cc3)ccn2)c1,< 1
6,C=CC(=O)NCCSc1nc(-c2ccc(F)cc2)c(-c2ccnc(Nc3ccccc3)c2)[nH]1,2.2
7,CCC(=O)Nc1ccc(OC)c(Nc2cc(-c3[nH]c(CCCO)nc3-c3ccc(F)cc3)ccn2)c1,< 1
8,C=CC(=O)Nc1cc(Nc2cc(-c3[nH]c(SC)nc3-c3ccc(F)cc3)ccn2)cc(N2CCN(C)CC2)c1,< 1
9,C=CC(=O)Nc1ccc(OC)c(Nc2cc(-c3[nH]c(CCCO)nc3-c3ccc(F)cc3)ccn2)c1,< 1
10,C=CC(=O)Nc1cc(Nc2cc(-c3[nH]c(SC)nc3-c3ccc(F)cc3)ccn2)cc(N2CCOCC2)c1,< 1

# Biological target: T2, Epidermal growth factor receptor
# Assay: not given
# Conditions: not given
# Remark: another data set of the same source
row,Structure (SMILES),Ki [nM]
1,C=CC(=O)NCCSc1nc(-c2ccc(F)cc2)c(-c2ccnc(Nc3ccccc3)c2)[nH]1,0.38
2,C=CC(=O)Nc1ccc(OC)c(Nc2cc(-c3[nH]c(CCCO)nc3-c3ccc(F)cc3)ccn2)c1,0.03

# Tested on: A-431
# Assay: cells
# Assay type: ADME, cell-based
# Conditions: Homo sapiens, A-431, 96 h
# Description: Antiproliferative activity against human A431 cells harboring wild type EGFR assessed as growth inhibition after 96 hrs by CellTiter-Glo assay
row,Structure (SMILES),EC50 [nM]
1,CC(=O)CCCSc1nc(-c2ccc(F)cc2)c(-c2ccnc(Nc3ccccc3)c2)[nH]1,12000
2,C=CC(=O)Nc1ccc(OC)c(Nc2cc(-c3cnc(SC)[nH]3)ccn2)c1,4100
3,C=CC(=O)NCCCSc1nc(-c2ccc(F)cc2)c(-c2ccnc(Nc3ccccc3)c2)[nH]1,1400
4,CCC(=O)Nc1cccc(Nc2cc(-c3[nH]c(SC)nc3-c3ccc(F)cc3)ccn2)c1,1500
5,CCC(=O)Nc1ccc(OC)c(Nc2cc(-c3[nH]c(SC)nc3-c3ccc(F)cc3)ccn2)c1,7700
6,C=CC(=O)NCCSc1nc(-c2ccc(F)cc2)c(-c2ccnc(Nc3ccccc3)c2)[nH]1,12000
7,CCC(=O)Nc1ccc(OC)c(Nc2cc(-c3[nH]c(CCCO)nc3-c3ccc(F)cc3)ccn2)c1,17000
8,C=CC(=O)Nc1cc(Nc2cc(-c3[nH]c(SC)nc3-c3ccc(F)cc3)ccn2)cc(N2CCN(C)CC2)c1,1400
9,C=CC(=O)Nc1ccc(OC)c(Nc2cc(-c3[nH]c(CCCO)nc3-c3ccc(F)cc3)ccn2)c1,4000
10,C=CC(=O)Nc1cc(Nc2cc(-c3[nH]c(SC)nc3-c3ccc(F)cc3)ccn2)cc(N2CCOCC2)c1,1500

# Tested on: not listed separately
# Assay: Drug degradation in human liver microsomes at 100 uM preincubated for 5 mins with NADPH-regenerating system followed by liver microsomes addition measured after 240 mins by LC-MS analysis
# Assay type: ADME, microsome
# Conditions: read-out: Drug degradation
row,Structure (SMILES),"metabolised at 4 h, 100 µM [%]"
1,C=CC(=O)Nc1cc(Nc2cc(-c3[nH]c(SC)nc3-c3ccc(F)cc3)ccn2)cc(N2CCN(C)CC2)c1,27
2,C=CC(=O)Nc1ccc(OC)c(Nc2cc(-c3[nH]c(CCCO)nc3-c3ccc(F)cc3)ccn2)c1,9

# Biological target: T3, Epidermal growth factor receptor (Homo sapiens, UniProt P00533, L858R/T790M)
# Assay: not given
# Conditions: not given
row,Structure (SMILES),IC50 [nM]
1,CC(=O)CCCSc1nc(-c2ccc(F)cc2)c(-c2ccnc(Nc3ccccc3)c2)[nH]1,1330
2,C=CC(=O)Nc1ccc(OC)c(Nc2cc(-c3cnc(SC)[nH]3)ccn2)c1,8.6
3,C=CC(=O)NCCCSc1nc(-c2ccc(F)cc2)c(-c2ccnc(Nc3ccccc3)c2)[nH]1,321
4,CCC(=O)Nc1cccc(Nc2cc(-c3[nH]c(SC)nc3-c3ccc(F)cc3)ccn2)c1,93
5,CCC(=O)Nc1ccc(OC)c(Nc2cc(-c3[nH]c(SC)nc3-c3ccc(F)cc3)ccn2)c1,5
6,C=CC(=O)NCCSc1nc(-c2ccc(F)cc2)c(-c2ccnc(Nc3ccccc3)c2)[nH]1,38
7,CCC(=O)Nc1ccc(OC)c(Nc2cc(-c3[nH]c(CCCO)nc3-c3ccc(F)cc3)ccn2)c1,< 1
8,C=CC(=O)Nc1cc(Nc2cc(-c3[nH]c(SC)nc3-c3ccc(F)cc3)ccn2)cc(N2CCN(C)CC2)c1,< 1
9,C=CC(=O)Nc1ccc(OC)c(Nc2cc(-c3[nH]c(CCCO)nc3-c3ccc(F)cc3)ccn2)c1,< 1
10,C=CC(=O)Nc1cc(Nc2cc(-c3[nH]c(SC)nc3-c3ccc(F)cc3)ccn2)cc(N2CCOCC2)c1,< 1

# Biological target: T3, Epidermal growth factor receptor
# Assay: not given
# Conditions: not given
# Remark: another data set of the same source
row,Structure (SMILES),Ki [nM]
1,C=CC(=O)NCCSc1nc(-c2ccc(F)cc2)c(-c2ccnc(Nc3ccccc3)c2)[nH]1,6
2,C=CC(=O)Nc1ccc(OC)c(Nc2cc(-c3[nH]c(CCCO)nc3-c3ccc(F)cc3)ccn2)c1,0.1

# Biological target: T1, Epidermal growth factor receptor
# Assay: not given
# Conditions: not given
# Remark: another data set of the same source
row,Structure (SMILES),Ki [nM]
1,C=CC(=O)NCCSc1nc(-c2ccc(F)cc2)c(-c2ccnc(Nc3ccccc3)c2)[nH]1,1.6
2,C=CC(=O)Nc1ccc(OC)c(Nc2cc(-c3[nH]c(CCCO)nc3-c3ccc(F)cc3)ccn2)c1,0.07

# Same assay, conditions: human
row,Structure (SMILES),kinact [s⁻¹]
1,C=CC(=O)NCCSc1nc(-c2ccc(F)cc2)c(-c2ccnc(Nc3ccccc3)c2)[nH]1,0.0015
2,C=CC(=O)Nc1ccc(OC)c(Nc2cc(-c3[nH]c(CCCO)nc3-c3ccc(F)cc3)ccn2)c1,0.00267

# Tested on: NCI-H1975
# Assay: cells
# Assay type: functional, cell-based
# Conditions: Homo sapiens, NCI-H1975, 96 h
row,Structure (SMILES),EC50 [nM]
1,CC(=O)CCCSc1nc(-c2ccc(F)cc2)c(-c2ccnc(Nc3ccccc3)c2)[nH]1,14000
2,C=CC(=O)Nc1ccc(OC)c(Nc2cc(-c3cnc(SC)[nH]3)ccn2)c1,2000
3,C=CC(=O)NCCCSc1nc(-c2ccc(F)cc2)c(-c2ccnc(Nc3ccccc3)c2)[nH]1,1300
4,CCC(=O)Nc1cccc(Nc2cc(-c3[nH]c(SC)nc3-c3ccc(F)cc3)ccn2)c1,2200
5,CCC(=O)Nc1ccc(OC)c(Nc2cc(-c3[nH]c(SC)nc3-c3ccc(F)cc3)ccn2)c1,4300
6,C=CC(=O)NCCSc1nc(-c2ccc(F)cc2)c(-c2ccnc(Nc3ccccc3)c2)[nH]1,2400
7,CCC(=O)Nc1ccc(OC)c(Nc2cc(-c3[nH]c(CCCO)nc3-c3ccc(F)cc3)ccn2)c1,7200
8,C=CC(=O)Nc1cc(Nc2cc(-c3[nH]c(SC)nc3-c3ccc(F)cc3)ccn2)cc(N2CCN(C)CC2)c1,1100
9,C=CC(=O)Nc1ccc(OC)c(Nc2cc(-c3[nH]c(CCCO)nc3-c3ccc(F)cc3)ccn2)c1,400
10,C=CC(=O)Nc1cc(Nc2cc(-c3[nH]c(SC)nc3-c3ccc(F)cc3)ccn2)cc(N2CCOCC2)c1,1300
